Key:
[1] = parameters: method as in Lacivita et al., 2016; Modica et al., 2018; conditions: in vivo bio-distribution; ref Lacivita et al., 2016; Modica et al., 2018; cited from earlier work
D2 = molecular target: D2; parameters: method as in Lacivita et al., 2016; conditions: ref Lacivita et al., 2016; cited from earlier work
5-HT6 = molecular target: 5-HT6; parameters: method as in Lacivita et al., 2016; conditions: ref Lacivita et al., 2016; cited from earlier work
5-HT1A = molecular target: 5-HT1A; parameters: method as in Lacivita et al., 2016; conditions: ref Lacivita et al., 2016; cited from earlier work
Alfa-1 = molecular target: Alfa-1; parameters: method as in Lacivita et al., 2016; conditions: ref Lacivita et al., 2016; cited from earlier work
rats [2] = test: Conditioned place preference with MPH and TP-22; type: in vivo, rat (Wistar-Han)
Source text: The experimental apparatus used for the CPP test is a Black/White Box (BWB; Adriani et al., [2012]), i.e., a Plexiglas box with smooth walls and floor (70 × 30 × 35 cm) composed of two environments separated by a central gray wall placed at a distance of about 35 cm from end walls. The walls on the longer sides are gray whereas those on the short margins can be distinguished by black or white color. To make the two environments more recognizable, we added additional visual cues: three horizontal white stripes to the black wall and three vertical black stripes to the white wall. On the central gray wall there is a door with an easily removable panel (partition), allowing the experimental subjects to pass (or not) from one compartment chamber to the other, when required.
On both longer sides of the box, there are two aluminum bars equipped with eight photocells connected by cables to a computer. The software in use is Cage controller 1.27 for Dark Light for Rat and Mouse® (PRS, Rome, Italy)^2, that allows to score for each subject:
• Motor activity (beam interruptions per second) in either chamber • Time spent in each chamber (both forepaws and hindpaws in a same chamber) • Transitions (number of times a subject crosses the door between the two chambers)
This test was carried out under dim light and required nine not consecutive days divided into four steps (Figures 2–4):
• Day 1, initial preference test. The spontaneous place preference of experimental subjects was tested in drug-free conditions. They were initially placed in the black chamber (chosen as starting room) and central door was open during the whole test (15 min). The triplet of rats residing in each home cage was tested at the same time. • Days 2–7, drug conditioning. On odd days all 18 subjects were injected with saline solution only and, after injection, immediately placed in the black chamber. […]
The dependent variable was calculated as final preference day minus initial preference day. […]

rats [3] = test system: rats; parameters: method as in Galici et al., 2008; Waters et al., 2012; conditions: ref Galici et al., 2008, Waters et al., 2012; cited from earlier work
mice = test system: mice; parameters: method as in Galici et al., 2008; Waters et al., 2012; conditions: ref Galici et al., 2008, Waters et al., 2012; cited from earlier work

SMILES: N#Cc1ccc(CNC(=O)CCCCCN2CCN(c3ccccc3-c3ccccc3)CC2)cc1 [LP-211, N-(4-cyanophenylmethyl)-4–(2-biphenyl)-1-piperazinehexanamide]
- brain Cmax [1]: 540 ng/mL
- Ki (D2): 0.242 µM
- Ki (5-HT6): 1.57 µM
- Ki (5-HT1A): 0.379 µM
- Ki (Alfa-1): 0.0226 µM

SMILES: COC(=O)C(c1ccccc1)C1CCCCN1 (stereo not shown) [MPH, methylphenidate]
- locomotor activity on drug conditioning days (white chamber) (rats [2]; VEH then MPH 5 mg/kg i.v., vs saline control, P < 0.01): significantly enhanced
- activity rate, post-conditioning preference test minus initial test (rats [2]; drug-free, VEH+MPH conditioned rats): negative during the entire session
- time spent in the white side, post-conditioning preference test (rats [2]; drug-free, VEH+MPH conditioned rats, first 05 min): slight preference for the white side

SMILES: CC1CCN(CC[C@H]2CCCN2S(=O)(=O)c2cccc(O)c2)CC1 [SB-269970]
- amphetamine-induced hyperactivity (rats [3]): significantly attenuated
- amphetamine-induced hyperactivity (mice): significantly attenuated

From article PMC6759476, “Prior Activation of 5-HT7 Receptors Modulates the Conditioned Place Preference With Methylphenidate” (Frontiers in Behavioral Neuroscience, 2019)
